This is an account of results in patent publication US20020025944A1, “Use of clioquinol for the therapy of Alzheimer's disease” (priority 2000, published 2002).

Structures are written as SMILES. Where two headings read alike, the source gives them in different places.

Data set [1] has as its target Aβ1-40 (Homo sapiens, UniProt P05067). The data set is described as follows: Zn(II)-induced Aβ1-40 aggregation, supernatant protein by BCA assay. Type of data set: biochemical. Conditions: 20 mM HEPES, pH 7.4, 30 minutes at 37° C. The procedure:
Aβ1-40 was incubated with no metal, Zn (II), Zn (II) +clioquinol, DMSO or clioquinol (120 μM) in 20 mM HEPES, […], pH 7.4. Samples were incubated for 30 minutes at 37° C. and then centrifuged at 10,000 g for 20 minutes and the protein content of the supernatant determined using the BCA assay. Clioquinol was dissolved in DMSO prior to adding 20 μM to the samples. […] DMSO had no effect on Aβ aggregation. Results are mean ±SD, n=3.

Data set [2] is described as follows: dissolving clioquinol: n-decane / PBS partitioning. It is filed as physicochemical. As to the method:
In order to obtain a solution of clioquinol in PBS, the following protocol was followed: 5.3 grams of clioquinol was suspended with agitation in 200 milliliter of n-decane. […] Next, the phases were allowed to separate. The lower phase ([…]) was collected and filtered to remove the residue which had formed at the phase interface upon extraction with the organic solvent. […] This number was arrived at based on two assumptions: (1) 2% of the clioquinol was dissolved in the n-decane; and (2) the partitioning coefficient is 1/1750 with PBS at 1:1 mixture of n-decane to […].

In data set [3] the target is Aβ 1-40 aggregates (Homo sapiens, UniProt P05067). The data set is described as follows: resolubilization of metal- or pH-induced Aβ aggregates on 0.2μ nylon membrane. It is filed as biochemical. Conditions: 2 μM chelator in TBS, relative to TBS alone. As to the method: Aggregates were transferred to a 0.2μ nylon membrane by filtration. The aggregates were then washed (200 μl/well) with TBS alone, TBS containing 2 μM EDTA, or TBS containing 2 μM clioquinol. The membrane was fixed, probed with the anti-Aβ monoclonal antibody 6E10, and developed for exposure to ECL-film. […] Values are expressed as a percentage of Aβ signal after washing with TBS alone.
First, the efficacy of clioquinol's ability to resolubilize Aβ aggregates, formed in vitro by the action of Cu(II) or Zn(II) upon Aβ 1-40, was examined. […] Aβ (10 ng/well in buffered saline) aggregation was induced by addition of ZnCl2 (5 μM) or acidic conditions (pH 5.5). Aggregates were transferred to a 0.2μ nylon membrane by filtration. The aggregates were then washed (200 μl/well) with TBS alone, TBS containing 2 μM EDTA or TBS with 2 μM clioquinol. The membrane was then fixed, probed with anti-Aβ monoclonal antibody 6E10 and developed for exposure to ECL-film.
Values are expressed as a % of Aβ signal remaining on the filter after washing with TBS alone.

The conditions of data set [4]: cited from earlier work; for blood brain barrier passage: in vivo.
The conditions of data set [5]: cited from earlier work.
For data set [6] the following is noted: chelation of zinc; cited from earlier work.
The conditions of data set [7]: rats and mice, within one hour of ingestion; cited from earlier work.
For data set [8] the following is noted: cited from earlier work. The source holds these as a separate data set.
The conditions of data set [9]: monkeys, oral dose of 500 mg/kg; cited from earlier work.
For data set [10] the following is noted: dogs, oral dose of 200 mg/kg; cited from earlier work.
For data set [11] the following is noted: sustained treatment; cited from earlier work.
For data set [12] the following is noted: with PBS at 1:1 mixture of n-decane; cited from earlier work.
The conditions of data set [13]: rats, oral dose of 200 mg/kg; cited from earlier work.
Data set [14] relates to Aβ deposits from AD-affected brain. The data set is described as follows: extraction of Aβ from post-mortem AD-affected brain tissue, western blot. It is filed as biochemical, human. An excerpt:
To test this hypothesis, the brain tissue preparation of Kuo and colleagues was replicated, but phosphate-buffered saline pH 7.4 (PBS) was substituted as the extraction buffer, achieving similar results. Highly sensitive and specific anti-Aβ monoclonal antibodies (Ida et al., (1996)) were used to assay Aβ extraction by western blot. Next, the extraction of the same material with PBS was repeated in the presence of clioquinol and determined that the presence of clioquinol increased the amount of Aβ in the soluble extract several-fold (FIGS. 1, 2, 3A, and 3B).
Next, the ability of clioquinol to extract Aβ deposits from human brain was determined. […] Fragments of prefrontal cortex from individual post-mortem samples with the histopathological diagnosis of AD were homogenized in PBS, ph 7.4, and then pelleted after centrifugation.
The pellets were then washed with agitation twice for 30 minutes, 4° C., with PBS or PBS containing clioquinol (100% =0.8 μM clioquinol). The suspension was then pelleted (10,000 g for 30 minutes) and the supernatant removed (S1) for western blot analysis using Aβ-specific antibodies.
FIGS. 3A and 3B show the western blot and accompanying densitometric analysis of resolubilization of Aβ from AD-affected brain. […] Synthetic peptide standards that were used to calibrate densitometric quantification are shown in the two right-most lanes. […]
Background: In western blotting, separated proteins are transferred to a membrane and probed.

Chain of Aβ 1-40 aggregates (P05067 672-711): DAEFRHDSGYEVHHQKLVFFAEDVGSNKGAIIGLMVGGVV
Chain of Aβ1-40 (P05067 672-711 limits assumed): as the sequence (P05067 672-711) above

For the compound `Oc1c(I)cc(Cl)c2cccnc12` [clioquinol, 5-chloro-7-iodo-8-hydroxyquinoline], the “effect on Zn-induced Aβ1-40 aggregation” value in [1] is on record as “attenuated Zn-induced Aβ1-40 aggregation”. Also, the “fraction of clioquinol dissolved in n-decane” value in [2] (5.3 grams suspended in 200 milliliter n-decane) was determined as 2%. For the same compound, in [2] (PBS pH 7.4 after 1:1 extraction of n-decane supernatant), the “concentration of clioquinol in the PBS” value is 800 nanamolar. In addition, in data set [3], the “resolubilized Cu(II)-induced Aβ precipitate” value worked out at 85%. In data set [3], the “resolubilized Zn(II)-induced Aβ precipitate” value is 50%. The “resolubilized pH 5.5-induced Aβ precipitate” value in [3] turned out to be 10%. For the same compound, in [4] (bolus dose), the “removal of a bolus dose from the brain” value is “almost completely removed from the brain within three hours”. In addition, the “blood brain barrier passage” value is on record as “freely permeable into the brain” in [4] and “crosses the blood brain barrier” in data set [4] (listed as Clioquinol). For the same compound, the excretion half life in data set [5] (in vivo) is 1 to 3 h. Further, the “time to reach peak plasma levels” value in data set [5] (oral ingestion) was not above 30 min. For the same compound, the “K(Zn)” value in data set [6] was 12.5. For the same compound, in data set [7], the blood levels is 1 to 10 µM. Besides, the general toxicity profile result in data set [8] (in vivo) is reported as “low general toxicity profile”. Further, the “safety in mammalian species” value in [8] (many mammalian species, including rat and mouse) is on record as “appears to be safe”. The plasma levels in data set [9] is 20 to 70 µM; in [10] it was 10 to 30 µM; in data set [13], 5 µM. Besides, the “dose causing subacute myelo-optic neuritis” value in data set [11] is listed as 10 mg/kg/day. In addition, the partitioning coefficient in data set [12] is 1/1750. For the same compound, in data set [14] (1.12 μM clioquinol, sequential extraction), the “increase in solubilization of Aβ relative to PBS alone” value turned out to be 2.5 fold. Also, in data set [14] (compared to buffer in the absence of chelators), the “proportion of Aβ re-dissolved from post-mortem AD affected brain tissue” value is “up to 70%”.
